Key:
Type in all cases: cell-based, Pseudomonas aeruginosa
PAO1-EGFP biofilm = assay: Biofilm on steel coupons, fluorescence / CLSM; conditions: 160 μM, 24 h, LB media
Description: A crystal violet (CV) assay was used to measure the amount of PAO1 biofilm formed after 24 h of bacterial inoculation. The fluorescence of green fluorescent proteins (GFP) expressed by PAO1-GFP was measured to directly quantify bacterial adhesion on polystyrene black 96 well plates with and without maltose derivatives after 2 h of bacterial inoculation. To evaluate the potential of maltose derivatives as both anti-biofilm and anti-adhesion agents, they were compared to a brominated furanone (BF8) known to inhibit biofilm formation, and two generic surfactants, sodium dodecyl sulfate (SDS) and tetra (ethylene glycol) monododecyl ether (C12EG4OH). […] P. aeruginosa strain PAO1-EGFP that constitutively producing green fluorescent protein was allowed to form biofilm on sterile steel coupons.
Confocal laser scanning microscopy (CLSM) based biofilm inhibition assay. Steel coupons (˜1×1 cm) were washed with EtOH, dried under a stream of nitrogen and then sterilized in an autoclave. Overnight culture of PAO1/EGFP (OD600 ˜1.0) grown in LB media (supplemented with 300 μg/mL of carbenicillin), was sub-cultured to OD600˜0.01 and then the OD600 was allowed to reach ˜0.1. Aliquot (600 μL) of PAO1/EGFP subculture OD600˜0.1 was then added into the wells of a 24-well micro titer plate. DSHs were then introduced into the assigned wells to reach a resultant concentration of 160 μM. Bacterial sub-culture with no agent served as positive control. Sterile steel coupons were then placed into the wells and the plates were wrapped with saran wrap and incubated for 24 h at 37° C. under static conditions. After 24 hours, the steel coupons were removed and washed by dipping in PBS buffer (2 washes) and the dried by holding with a forcep and gently dabbing the edge on a bleached paper (KIM wipes). The dried steel coupons were viewed under confocal laser scanning microscope (CLSM). Images were taken at 4 random locations on each steel coupons. Z-stacked images were also taken to determine the relative thickness of the biofilm.

PAO1 biofilm = assay: Crystal violet based static biofilm inhibition assay, DSHs in LB media (Examples 2 and 4); conditions: for Inhibition of PAO1 biofilm formation (surface attached): 160 μM, 24 h, LB media; for Anti-biofilm activity (biofilm inhibition): concentration not given
Description: The ability of DSHs was tested to inhibit Pseudomonas aeruginosa adhesion, biofilm and to disperse pre-formed biofilm. To quantify the amount of PAO1/EGFP attached on the surface of micro titer plates with or without the synthesized DSHs, fluorescence emitted by green fluorescent proteins (GFP) was quantified (see supporting info for details). Crystal violet (CV) based static biofilm assay (see supporting info) was used to screen the anti-biofilm potencies of all synthesized agents. Both surface attached (SA) (FIG. 17) and total (SA+air-liquid interface) biofilm of P. aeruginosa was quantified. […] CV assays were also used to quantify the amount of P. aeruginosa biofilm remaining after dispersion experiments (FIG. 19). Initially, all agents were screen for anti-biofilm activities (both inhibition and dispersion) at 160 μM. […] All reported biofilm inhibition results are an average of 4 identical wells.
The effect that DSHs have on the adhesion of PAO1-EGFP on polystyrene surface (microtiter plate) was also examined. PAO1-EGFP is a P. aeruginosa strain that constitutively expresses green fluorescent protein. In the adhesion assays, PAO1-EGFP was grown in microtiter plate for 24-hours in LB-media with (160 μM) or without DSHs. After 24-hours, the fluorescent signal obtained from surface adhered PAO1-EGFP was measured. Percent reduction in fluorescence was calculated by comparing fluorescent signal from PAO1-EGFP grown in LB-media with the signal from wells that had DSHs (FIG. 29A). To study the effect of DSHs on biofilm formation, Pseudomonas aeruginosa (PAO1) was grown in LB-media with (160 μM) or without DSHs at 37° C. under static conditions within wells of microtiter plates. After 24 hours, the surface attached biofilms adhering to the bottom of the wells were stained with crystal-violet dye and the biofilm was quantified by measuring absorbance at 600 nm (OD600). […] Similar to inhibition, the surface attached biofilm after dispersion with DSHs was quantified with crystal-violet staining and absorbance measurement at 600 nm, except that for dispersion, biofilm was first grown for 1 day in just LB-media without any DSHs after which DSHs were added and plates were incubated for additional 24 hours followed by quantification (FIG. 29B).
Crystal violet (CV) based-biofilm inhibition assay. Inhibitory effect of all synthesized disaccharide hydrocarbons on biofilm formation of Pseudomonas aeruginosa (wild type PAO1) was determined by static biofilm inhibition assay using crystal violet staining. Overnight culture of PAO1 were sub cultured in LB media to OD600 of 0.01 and further the OD600 was allowed to reach ˜0.1. The bacterial sub-culture (200 μL) was then added into the wells of a microtiter plate. Predetermined concentrations of DSHs were added to respective wells containing sub culture by pipetting out fixed volume of sterile aqueous stock solutions (except DβL (7), SPOT, (15) and 2-ODαC (17), which were introduced as stocks prepared in H2O […] and EtOH (90:10) solutions). The microtiter plates were then wrapped in GLAD Press n′ Seal® (saran wrap) and further incubated under stationary conditions for 24 h at 37° C. After 24 h incubation, the culture media was discarded by pipetting carefully (without disrupting biofilm), the plate was then washed once with sterile water (200 μL) and allowed to dry at 37° C. for ˜30 mins. Microtiter plates were then stained with 0.1% aqueous solution of crystal violet (CV) (200 μL) at rt for ˜30 mins. Following this, the CV stain was removed and plate was again washed with sterile water (200 μL). Resultant CV stain in the well was then solubilized by adding 100 μL of 30% AcOH solution (in water) and mixing gently by pipetting.

[1] = tested on: nonswarming P. aeruginosa mutant rhlA; assay: Swarming motility of nonswarming rhlA mutant on soft agar (reactivation / agonist assay); conditions: for Swarming reactivation of rhlA mutant: 110 μM in soft agar
Excerpt: Using nonswarming mutant to screen for swarming agonists and wild type P. aeruginosa for swarming antagonists. The transposon mutant, rhlA (genotype, rhlA-E08:ISphoA/hah)39 of P. aeruginosa (PAO1), that impairs the gene that is responsible for synthesizing rhamnolipids is completely incapable of a swarming motility. […] Based on this inference, a rhlA mutant was used in a swarming experiment to screen the saccharide-hydrocarbons for agonists that can reactivate the swarming motility of rhlA.
(§1) Swarm agar plates were based on M8 medium supplemented with 0.2% glucose, 0.5% casamino acid, 1 mM MgSO4 and […]. 17 For each set of experiment all the swarm plates were poured from same batch of agar and allowed to dry for 1 h before inoculation of bacteria. Bacterial culture (3 μl) (wild type PAO1 or rhlA mutant) with OD600 between […] was inoculated on the solidified agar plates. Swarm agar plates were incubated at 37° C. for 12 h and then incubated for additional 12 h at room temp. Chronological images of swarm plates were taken using a camera. To measure swarming area, sizes of the petridish in all swarming images were adjusted to a pre-assigned diameter and images were printed on copying paper (Xerox-business 4200). Weight of a 1 cm^2 copy paper square was roughly ˜8.0 mg. swarming images on the copy paper were cut and weighed, the swarm area was calculated by dividing the weight of image by weight of 1 cm^2 square (8 mg).
(§2) Swarm agar plates were made using M8 medium supplemented with 0.2% glucose, 0.5% casamino acid, 1 mM MgSO4 and solidified with 0.5% Bacto agar. 24 Bacterial culture with OD600 between 0.4 to 0.6 was inoculated as 3 μl aliquots. Swarm agar plates were incubated at 37° C. for 12 h and then incubated for additional 12 h at rt. For each set of experiment all the swarm plates were poured from same batch of agar and allowed to dry for 1 h before inoculation of bacteria.

wild type PAO1 = assay: Swarming motility of wild type PAO1 on soft agar (antagonist assay); conditions: for Swarming of wild type PAO1: 110 μM in soft agar; for Effect on PAO1 swarming: concentration not given
Description: In contrast, the wild type P. aeruginosa produces the rhamnolipids and is capable of swarming on soft agar gel (˜0.5% agar). […] We note that saccharide hydrocarbons may also promote the swarming motility, but such promotions are less unambiguous than the inhibition for wild type PAO1. Such promotion will be unambiguous in the agonist assay using the nonswarming mutant rhlA.
as §1, §2

[2] = 85 μM in soft agar (0.5%), 24 h

`CCCCCCCCCCO[C@@H]1O[C@H](CO)[C@@H](O[C@@H]2O[C@H](CO)[C@@H](O)[C@H](O)[C@H]2O)[C@H](O)[C@H]1O` [DeβC (2), decyl-β-cellobioside] was tested, and the “PAO1-EGFP biofilm on stainless steel coupons (CLSM)” value (from here on “PAO1-EGFP biofilm”) (PAO1-EGFP biofilm) was “bacterial surface coverage comparable to that of control”, the “Inhibition of PAO1 biofilm formation (surface attached)” value (from here on “Inhibition of PAO1 biofilm formation”) (PAO1 biofilm) was “insignificant biofilm inhibition and no” and the “Inhibition of PAO1 biofilm formation” value (PAO1 biofilm; listed as 2: DeβC, 160 µM) was “complete loss of anti-biofilm activity”. For the same compound, the “Anti-biofilm activity (biofilm inhibition)” value (PAO1 biofilm) was “did not show significant inhibition of PAO1 biofilm”, the “Anti-biofilm activity (biofilm inhibition)” value (PAO1 biofilm; listed as DβC (2)) was “did not show anti-biofilm activities” and the “Swarming motility of rhlA mutant” value [1, 2] was “did not show a noticeable effect on the swarming motility”. The “Swarming reactivation of rhlA mutant” value ([1]; 24 h) was “incapable of reactivating the swarming”, the “Swarming motility of rhlA mutant” value ([1]; 160 μM in soft agar, 24 h) was “weak activation of rhlA swarming motility” and the “Reactivation of swarming motility of rhlA mutant” value ([1]; concentration not given) was “activated the swarming motility of rhlA mutant”. For the same compound, the “Increase of reactivated swarming ring of rhlA with respect to swarming ring of PAO1 without agents” value ([1]; increasing from 85 to 160 μM) was 38%, the “Swarming motility of wild type PAO1” value (wild type PAO1; 85 μM in soft agar, 24 h) was “did not show a noticeable effect on the swarming motility” and the “Swarming of wild type PAO1” value (wild type PAO1; 24 h) was “did not significantly affect the swarm pattern”. The “Swarming motility of wild type PAO1” value (wild type PAO1; 160 μM in soft agar, 24 h) was “weak promotion of swarming motility of wild type PAO1” and the “Effect on PAO1 swarming” value (wild type PAO1) was “no apparent effect on PAO1 swarming”.
In the case of `CCCCCCCCCCCCO[C@@H]1O[C@H](CO)[C@@H](O[C@@H]2O[C@H](CO)[C@@H](O)[C@H](O)[C@H]2O)[C@H](O)[C@H]1O` [DβC (4), dodecyl-β-cellobioside], the “PAO1-EGFP biofilm” value (PAO1-EGFP biofilm) is reported as “decreased the fluorescence signal significantly”, the “Inhibition of PAO1 biofilm formation” value (PAO1 biofilm; listed as 4: DβC, 160 µM) is reported as 60% and the “Inhibition of PAO1 biofilm formation” value (PAO1 biofilm; listed as DISC (4)) is reported as 62%. For the same compound, the IC50 (PAO1 biofilm; Example 4, FIG. 30) was roughly 72 µM, the “Concentration at which tendril formation was induced in rhlA mutant” value [1] was roughly 56 µM and the “Concentration of first inhibition of rhlA swarming” value [1] was “around 50 μM”. For the same compound, the “Swarming motility of rhlA mutant” value ([1]; 40 μM) was “activated the swarming motility of rhlA mutant”, the “Swarming motility of rhlA mutant” value [1, 2] was “strong reactivation of the swarming motility in rhlA mutant” and the “Swarming reactivation of rhlA mutant” value ([1]; 24 h, listed as 4: DbC) was “fully restores swarming with fine tendrils”. The “Swarming reactivation of rhlA mutant” value ([1]; 24 h, listed as 4: DβC) was “fully restored the swarming of rhlA”, the “Concentration of another activation of rhlA swarming” value ([1]; after first inhibition) was “about 160 μM” and the “Concentration of activity reversal for swarming promotion of rhlA mutant (transition concentration)” value ([1]; soft agar) was “^a~45-56 μM”. The “Lowest concentration that reactivates swarming of rhlA mutant” value ([1]; soft agar) was no more than 20 µM, the “Concentration of activity reversal for swarming promotion of rhlA mutant (transition concentration)” value ([1]; soft agar, listed as 4) was 45 to 56 µM and the “Concentration at which tendrils were induced in PAO1” value (wild type PAO1) was 20 µM. The “Swarming motility of wild type PAO1” value (wild type PAO1; 20 μM) was “stronger inhibition than rhamnolipids”, the “Swarming area of PAO1 smaller than control” value (wild type PAO1; 85 μM) was roughly 46% and the “Swarming motility of wild type PAO1” value (wild type PAO1; 85 μM in soft agar, 24 h) was “causing significant amount of tendril formation”. For the same compound, the “Swarming area of wild type PAO1” value (wild type PAO1; 85 μM, control ~24 cm2) was roughly 13 cm2, the “Swarming of wild type PAO1” value (wild type PAO1; 24 h, listed as 4: DbC) was “promotes tendril formation” and the “Swarming of wild type PAO1” value (wild type PAO1; 24 h, listed as 4: DβC) was “induced more tendril formation”. For the same compound, the “Effect on PAO1 swarming” value (wild type PAO1) was “induced tendril formation in the swarming pattern of PAO1” and the “Concentration of activity reversal for swarming inhibition of PAO1 (transition concentration)” value (wild type PAO1; soft agar) was roughly 20 to 30 µM.
In the case of `CCCCCCCCCCCCO[C@@H]1O[C@H](CO)[C@@H](O[C@@H]2O[C@H](CO)[C@H](O)[C@H](O)[C@H]2O)[C@H](O)[C@H]1O` [DβL (7), dodecyl-β-lactoside], the “PAO1-EGFP biofilm” value (PAO1-EGFP biofilm) is reported as “bacterial surface coverage comparable to that of control”, the “Inhibition of PAO1 biofilm formation” value (PAO1 biofilm) is reported as “insignificant biofilm inhibition” and the “Inhibition of PAO1 biofilm formation” value (PAO1 biofilm; listed as 7: DβL, 160 µM) is reported as “severely compromised the anti-biofilm activity”. The “Anti-biofilm activity (biofilm inhibition)” value (PAO1 biofilm) was “low activities”, the “Swarming reactivation of rhlA mutant” value ([1]; 24 h) was “incapable of reactivating the swarming” and the “Swarming of wild type PAO1” value (wild type PAO1; 24 h) was “did not significantly affect the swarm pattern”.

Source: patent US11357786B2, “Synthetic disugar hydrocarbons as natural analogs to control microbial behaviors” (Syracuse University, priority 2014, dated 2022)
